Values after ≈ are worked out from the molar mass of the structure shown. Active and inactive are the calls of the source. The calls are words filed in the database; no cut-off is given here.
Key:
Candida tropicalis [1] = test: Antifungal activity against 2 x 10^7 CFU/ml Candida tropicalis isolate 6 in antibiotic medium 3 after 24 hrs by broth microdilution method; assay type: functional; conditions: isolate 6, 24 h
Candida tropicalis [2] = test: Antifungal activity against 10^5 CFU/ml Candida tropicalis isolate 5 in RPMI 1640 medium at 12.5 ug/ml treated for 24 hrs followed by incubation in drug free medium for 48 hrs by broth microdilution method; assay type: functional, organism-based
Candida tropicalis [3] = test: Antifungal activity against 2 x 10^7 CFU/ml Candida tropicalis isolate 2 in RPMI 1640 medium after 24 hrs by broth microdilution method; assay type: functional; conditions: isolate 2, 24 h
Candida tropicalis [4] = test: Antifungal activity against 10^5 CFU/ml Candida tropicalis isolate 5 in RPMI 1640 medium at 12.5 ug/ml treated for 48 hrs followed by incubation in drug free medium for 48 hrs by broth microdilution method; assay type: functional, organism-based
Candida tropicalis [5] = test: Antifungal activity against 2 x 10^7 CFU/ml Candida tropicalis isolate 11 in RPMI 1640 medium after 24 hrs by broth microdilution method; assay type: functional; conditions: isolate 11, 24 h
Candida tropicalis [6] = test: Antifungal activity against Candida tropicalis isolate 1 in antibiotic medium 3 assessed as paradoxical growth at 12.5 ug/ml after 24 hrs by broth microdilution method; assay type: functional, organism-based
Candida tropicalis [7] = test: Antifungal activity against 10^5 CFU/ml Candida tropicalis isolate 15 in RPMI 1640 medium at 12.5 ug/ml treated for 24 hrs followed by incubation in drug free medium for 48 hrs by broth microdilution method; assay type: functional, organism-based
Candida tropicalis [8] = test: Antifungal activity against 10^5 CFU/ml Candida tropicalis isolate 11 in RPMI 1640 medium at 12.5 ug/ml treated for 24 hrs followed by incubation in drug free medium for 48 hrs by broth microdilution method; assay type: functional, organism-based
Candida tropicalis [9] = test: Antifungal activity against 2 x 10^7 CFU/ml Candida tropicalis isolate 15 in RPMI 1640 medium after 24 hrs by broth microdilution method; assay type: functional; conditions: isolate 15, 24 h
Candida tropicalis [10] = test: Antifungal activity against > 2 x 10^7 CFU/ml Candida tropicalis isolate 1 in antibiotic medium 3 assessed as partial growth after 24 hrs by broth microdilution method; assay type: functional, organism-based
Candida tropicalis [11] = test: Antifungal activity against > 2 x 10^7 CFU/ml Candida tropicalis ATCC 750 in antibiotic medium 3 assessed as partial growth after 24 hrs by broth microdilution method; assay type: functional, organism-based
Candida tropicalis [12] = test: Antifungal activity against 10^5 CFU/ml Candida tropicalis isolate 4 in RPMI 1640 medium at =< 0.09 ug/ml after 24 hrs followed by incubation in drug free medium for 48 hrs by broth microdilution method; assay type: functional, organism-based
Candida tropicalis [13] = test: Antifungal activity against 10^5 CFU/ml Candida tropicalis isolate 5 in RPMI 1640 medium at =< 0.09 ug/ml after 24 hrs followed by incubation in drug free medium for 48 hrs by broth microdilution method; assay type: functional, organism-based
Candida tropicalis [14] = test: Antifungal activity against > 2 x 10^7 CFU/ml Candida tropicalis isolate 4 in RPMI 1640 medium assessed as partial growth after 24 hrs by broth microdilution method; assay type: functional, organism-based
Candida tropicalis [15] = test: Antifungal activity against > 2 x 10^7 CFU/ml Candida tropicalis isolate 7 in antibiotic medium 3 assessed as partial growth after 24 hrs by broth microdilution method; assay type: functional, organism-based
Candida tropicalis [16] = test: Antifungal activity against 10^5 CFU/ml Candida tropicalis isolate 7 in RPMI 1640 medium at =< 0.09 ug/ml after 24 hrs followed by incubation in drug free medium for 48 hrs by broth microdilution method; assay type: functional, organism-based
Candida tropicalis [17] = test: Antifungal activity against 2 x 10^7 CFU/ml Candida tropicalis isolate 3 in antibiotic medium 3 after 24 hrs by broth microdilution method; assay type: functional; conditions: isolate 3, 24 h
Candida tropicalis [18] = test: Antifungal activity against 2 x 10^7 CFU/ml Candida tropicalis isolate 1 in antibiotic medium 3 after 24 hrs by broth microdilution method; assay type: functional; conditions: isolate 1, 24 h
Candida tropicalis [19] = test: Antifungal activity against Candida tropicalis isolate 7 in RPMI 1640 medium assessed as paradoxical growth at 12.5 ug/ml after 24 hrs by broth microdilution method; assay type: functional, organism-based
Candida tropicalis [20] = test: Antifungal activity against 10^5 CFU/ml Candida tropicalis isolate 6 in RPMI 1640 medium at =< 0.09 ug/ml after 24 hrs by followed by incubation in drug free medium for 48 hrs broth microdilution method; assay type: functional, organism-based
Candida tropicalis [21] = test: Antifungal activity against 10^5 CFU/ml Candida tropicalis isolate 2 in RPMI 1640 medium at 12.5 ug/ml treated for 24 hrs followed by incubation in drug free medium for 48 hrs by broth microdilution method; assay type: functional, organism-based
Candida tropicalis [22] = test: Antifungal activity against > 2 x 10^7 CFU/ml Candida tropicalis isolate 10 in RPMI 1640 medium assessed as partial growth after 24 hrs by broth microdilution method; assay type: functional, organism-based
Candida tropicalis [23] = test: Antifungal activity against Candida tropicalis ATCC 750 in RPMI 1640 medium assessed as paradoxical growth at 6.25 ug/ml after 24 hrs by broth microdilution method; assay type: functional, organism-based
Candida tropicalis [24] = test: Antifungal activity against 10^5 CFU/ml Candida tropicalis isolate 1 in RPMI 1640 medium at 12.5 ug/ml treated for 48 hrs followed by incubation in drug free medium for 48 hrs by broth microdilution method; assay type: functional, organism-based
Candida tropicalis [25] = test: Antifungal activity against 10^5 CFU/ml Candida tropicalis clinical isolates in RPMI 1640 medium at 6.25 ug/ml after 48 hrs followed by incubation in drug free medium for 48 hrs by broth microdilution method; assay type: functional, organism-based
Candida tropicalis [26] = test: Antifungal activity against > 2 x 10^7 CFU/ml Candida tropicalis isolate 5 in antibiotic medium 3 assessed as partial growth after 24 hrs by broth microdilution method; assay type: functional, organism-based

MIC (Candida tropicalis [1]): 0.024 µg/mL (≈ 0.022 µM)
MIC (Candida tropicalis [3]): 0.024 µg/mL (≈ 0.022 µM)
MIC (Candida tropicalis [5]): 0.024 µg/mL (≈ 0.022 µM)
MIC (Candida tropicalis [9]): 0.024 µg/mL (≈ 0.022 µM)
MIC (Candida tropicalis [17]): 0.024 µg/mL (≈ 0.022 µM)
MIC (Candida tropicalis [18]): 0.024 µg/mL (≈ 0.022 µM)
Structure (SMILES): CC[C@H](C)C[C@H](C)CCCCCCCCC(=O)N[C@H]1C[C@@H](O)[C@@H](NCCN)NC(=O)[C@@H]2[C@@H](O)CCN2C(=O)[C@H]([C@H](O)CCN)NC(=O)[C@H]([C@H](O)[C@@H](O)c2ccc(O)cc2)NC(=O)[C@@H]2C[C@@H](O)CN2C(=O)[C@H]([C@@H](C)O)NC1=O [CASPOFUNGIN]
Activity (Candida tropicalis [2]): inactive
Activity (Candida tropicalis [4]): inactive
Activity (Candida tropicalis [6]): inactive
Activity (Candida tropicalis [7]): inactive
Activity (Candida tropicalis [8]): inactive
Activity (Candida tropicalis [10]): inactive
Activity (Candida tropicalis [11]): inactive
Activity (Candida tropicalis [12]): Active
Activity (Candida tropicalis [13]): Active
Activity (Candida tropicalis [14]): inactive
Activity (Candida tropicalis [15]): inactive
Activity (Candida tropicalis [16]): Active
Activity (Candida tropicalis [19]): Active
Activity (Candida tropicalis [20]): Active
Activity (Candida tropicalis [21]): inactive
Activity (Candida tropicalis [22]): inactive
Activity (Candida tropicalis [23]): inactive
Activity (Candida tropicalis [24]): inactive
Activity (Candida tropicalis [25]): inactive
Activity (Candida tropicalis [26]): inactive
